The values below come from US7582645B2, “Pyrimidine derivatives for treatment of hyperproliferative disorders” (Bayer Pharmaceuticals Corporation, priority 2003, dated 2009).

Structures can show the parent of a compound that is named as a salt. Where only a bound is given, the exact number is not on record here.

A word on the IC50: it is the concentration that inhibits the measured activity by half.

The subject of the first assay is HCT116 cells. The assay is described as follows: HCT116 cytotoxic activity assay (Alamar Blue, 72 h). The class given is cell-based. To be noted: Homo sapiens, HCT-116, 72 h compound exposure, greater than 500 nM but less than or equal to 2 μM. Here is the method: Representative compounds of this invention were tested for cytotoxicity using the above-described assay procedure with the following results: […]
For orientation: The colour change of resazurin is a common sign of viable cells or microbes.
With `CCOC(=O)c1cc(Oc2cncc(Cl)c2)ccc1Nc1cc(-c2ccccc2)nc(N)n1` [Example 60, ethyl 2-[(2-amino-6-phenylpyrimidin-4-yl)amino]-5-[(5-chloropyridin-3-yl)oxy]benzoate], the IC50 fell in the range of 500 to 2000 nM.

Take `Nc1nc(Nc2ccc(Oc3cncnc3)cc2)cc(-c2ccccc2)n1` [Example 61, 6-phenyl-N4*-[4-(pyrimidin-5-yloxy)phenyl] pyrimidine-2,4-diamine]: the IC50 was in the range of 500 to 2000 nM. On the same count and under the same terms, the result for `Nc1nc(Nc2ccc(Oc3ccnc(O)c3)cc2)cc(-c2ccccc2)n1` [Example 65, 4-{4-[(2-amino-6-phenylpyrimidin-4-yl)amino]phenoxy}pyridin-2-ol] reads 500 to 2000 nM; that for `N#Cc1ccc(Oc2ccc(Nc3cc(-c4ccccc4)nc(N)n3)cc2)cc1` [Example 68, 4-{4-[(2-amino-6-phenylpyrimidin-4-yl)amino]phenoxy} benzonitrile], 500 to 2000 nM; that for `CNC(=O)c1cc(Oc2ccc(Nc3cc(-c4ccccc4)nc(N)n3)cc2)ccn1` [Example 70, 4-{4-[(2-amino-6-phenylpyrimidin-4-yl)amino]phenoxy}-N-methylpyridine-2-carboxamide], 500 to 2000 nM. Still for that read-out and setting: the result for `NC(=O)c1cc(Oc2ccc(Nc3cc(-c4ccc(F)cc4)nc(N)n3)cc2)ccn1` [Example 73, 4-(4-{[2-amino-6-(4-fluorophenyl)pyrimidin-4-yl]amino}phenoxy) pyridine-2-carboxamide] reads 500 to 2000 nM; that for `N#Cc1cc(Oc2ccc(Nc3cc(-c4ccc(F)cc4)nc(N)n3)cc2)ccn1` [Example 75, 4-(4-{[2-amino-6-(4-fluorophenyl)pyrimidin-4-yl]amino}phenoxy) pyridine-2-carbonitrile], 500 to 2000 nM; that for `Nc1nc(Nc2ccc(Oc3ccnc(C(=O)NC4CN5CCC4CC5)c3)cc2)cc(-c2ccccc2)n1` (stereo not shown) [Example 79, 4-{4-[(2-amino-6-phenylpyrimidin-4-yl)amino]phenoxy}-N-1-azabicyclo[2.2.2]oct-3-ylpyridine-2-carboxamide trifluoroacetate], 500 to 2000 nM.

Take `CN(C)CCOc1cc(Oc2ccc(Nc3cc(-c4ccccc4)nc(N)n3)cc2)ccn1` [Example 85, N^4-[4-({2-[2-(dimethylamino)ethoxy]pyridin-4-yl}oxy)phenyl]-6-phenylpyrimidine-2,4-diamine]: the IC50 is 500 to 2000 nM. Take `Cc1ccc(Cc2ccc(Nc3cc(-c4ccccc4)nc(N)n3)cc2)cc1` [Example 89, N^4-[4-(4-methylbenzyl)phenyl]-6-phenylpyrimidine-2,4-diamine]: the IC50 fell in the range of 500 to 2000 nM. In the case of `COc1ccc(Cc2ccc(Nc3cc(-c4ccccc4)nc(N)n3)cc2)cc1` [Example 90, N^4-[4-(4-methoxybenzyl)phenyl]-6-phenylpyrimidine-2,4-diamine], the IC50 lay in the range of 500 to 2000 nM.

The same assay, now with this note: Homo sapiens, HCT-116, 72 h compound exposure, greater than 2 μM.
Consider `CNC(=O)c1cc(Oc2ccc(Nc3cc(-c4ccc(F)cc4)nc(N)n3)cc2)ccn1` [Example 71, 4-(4-{[2-amino-6-(4-fluorophenyl)pyrimidin-4-yl]amino}phenoxy)-N-methylpyridine-2-carboxamide], for which the IC50 was greater than 2000 nM.

`CNC(=O)c1cc(Oc2cccc(Nc3cc(-c4ccc(F)cc4)nc(N)n3)c2)ccn1` [Example 72, 4-(3-{[2-amino-6-(4-fluorophenyl)pyrimidin-4-yl]amino}phenoxy)-N-methylpyridine-2-carboxamide] came in with an IC50 greater than 2000 nM. On the same count and under the same terms, in the case of `NC(=O)c1cc(Oc2cccc(Nc3cc(-c4ccc(F)cc4)nc(N)n3)c2)ccn1` [Example 74, 4-(3-{[2-amino-6-(4-fluorophenyl)pyrimidin-4-yl]amino}phenoxy) pyridine-2-carboxamide] it was greater than 2000 nM; in that of `CNC(=O)c1cc(Oc2cccc(Nc3cc(-c4ccc(OC)cc4)nc(N)n3)c2)ccn1` [Example 77, 4-(3-{[2-amino-6-(4-methoxyphenyl)pyrimidin-4-yl]amino}phenoxy)-N-methylpyridine-2-carboxamide], greater than 2000 nM. Same read-out and setting: the result for `CCCCOc1cc(Oc2ccc(Nc3cc(-c4ccccc4)nc(N)n3)cc2)ccn1` [Example 83, N4*-{4-[(2-butoxypyridin-4-yl)oxy]phenyl}-6-phenylpyrimidine-2,4-diamine] reads greater than 2000 nM. In turn, `CC(=O)c1ccc(Oc2ccc(Nc3cc(-c4ccccc4)nc(N)n3)cn2)cc1` [Example 87, 1-[4-({5-[(2-amino-6-phenylpyrimidin-4-yl)amino]pyridin-2-yl}oxy)phenyl]ethanone] came in with an IC50 greater than 2000 nM.

The same assay, now with this note: Homo sapiens, HCT-116, 72 h compound exposure, less than or equal to 500 nM.
Compound `Nc1nc(Nc2ccc(Oc3ccnc(/C=C/CCO)c3)cc2)cc(-c2ccccc2)n1` [Example 58, (3E)-4-(4-{4-[(2-amino-6-phenylpyrimidin-4-yl)amino]phenoxy}pyridin-2-yl)but-3-en-1-ol] yielded an IC50 of no more than 500 nM.

`Nc1ccc(Oc2ccc(Nc3cc(-c4ccccc4)nc(N)n3)cc2)cc1` [Example 62, N^4-[4-(4-aminophenoxy)phenyl]-6-phenylpyrimidine-2,4-diamine] returned an IC50 of no more than 500 nM. As to `Nc1nc(Nc2ccc(Oc3cc(Br)ccn3)cc2)cc(-c2ccccc2)n1` [Example 63, N4*-{4-[(4-bromopyridin-2-yl)oxy]phenyl}-6-phenylpyrimidine-2,4-diamine], the IC50 was no more than 500 nM.

As to `Nc1nc(Nc2ccc(Oc3ccnc(F)c3)cc2)cc(-c2ccccc2)n1` [Example 64, N4*-{4-[(2-fluoropyridin-4-yl)oxy]phenyl}-6-phenylpyrimidine-2,4-diamine trifluoroacetate], the IC50 is no more than 500 nM. On the same count and under the same terms, in the case of `Nc1nc(Nc2ccc(Oc3ccnc(Cl)c3)cc2F)cc(-c2ccccc2)n1` [Example 66, N4*-{4-[(2-chloropyridin-4-yl)oxy]-2-fluorophenyl}-6-phenylpyrimidine-2,4-diamine] it was no more than 500 nM; in that of `Nc1nc(Nc2ccc(Oc3ccnc(C(F)(F)F)c3)cc2F)cc(-c2ccccc2)n1` [Example 67, N4*-(2-fluoro-4-{[2-(trifluoromethyl)pyridin-4-yl]oxy}phenyl)-6-phenylpyrimidine-2,4-diamine], no more than 500 nM. Same read-out and setting: in the case of `NC(=O)c1cc(Oc2ccc(Nc3cc(-c4ccccc4)nc(N)n3)cc2)ccn1` [Example 69, 4-{4-[(2-amino-6-phenylpyrimidin-4-yl)amino]phenoxy} pyridine-2-carboxamide] it was no more than 500 nM; in that of `CNC(=O)c1cc(Oc2cccc(Nc3cc(-c4cccc(OC)c4)nc(N)n3)c2)ccn1` [Example 76, 4-(3-{[2-amino-6-(3-methoxyphenyl)pyrimidin-4-yl]amino}phenoxy)-N-methylpyridine-2-carboxamide], no more than 500 nM; in that of `Nc1nc(Nc2ccc(Oc3ccnc(C(=O)NCC(O)CO)c3)cc2)cc(-c2ccccc2)n1` (stereo not shown) [Example 80, 4-{4-[(2-amino-6-phenylpyrimidin-4-yl)amino]phenoxy}-N-(2,3-dihydroxypropyl)pyridine-2-carboxamide], no more than 500 nM.

Turning to `COCCOc1cc(Oc2ccc(Nc3cc(-c4ccccc4)nc(N)n3)cc2)ccn1` [Example 84, N^4-(4-{[2-(2-methoxyethoxy)pyridin-4-yl]oxy}phenyl)-6-phenylpyrimidine-2,4-diamine], the IC50 is no more than 500 nM. Regarding `Nc1ccc(Cc2ccc(Nc3cc(-c4ccccc4)nc(N)n3)cc2)cc1` [Example 88, N^4*-[4-(4-aminobenzyl)phenyl]-6-phenylpyrimidine-2,4-diamine], the IC50 was no more than 500 nM.
